From patent US7309713B2, “Use of the non-opiate analgesic drug flupirtine for the treatment of overactive bladder and associated diseases including urge incontinence, urinary flow problems as a result of prostate hyperplasia and irritable bowel syndrome” (priority 2005, dated 2007)
Values joined by “and” are separate entries in the source; they are usually repeats but may differ in a detail not shown here. Equal entries are not always repeated. “Also recorded” adds a separate entry of the source. Structures can show the parent of a compound that is named as a salt.

How the values were obtained:
[1] = test system: volume-induced rhythmic urinary bladder contractions; experiment: volume-induced rhythmic urinary bladder contractions in urethane anaesthetised rats (rat model of overactive bladder); format: in vivo, Sprague Dawley rat; conditions: for presence/absence of bladder contractions (block grade), individual animal: 55 min period, Table 3; for decrease in frequency, individual animal / duration of block, individual animal / increase in frequency, individual animal / number of episodes of block per animal: individual animals; for mean pressure peaks of the amplitude diminished/reduced by: reduction
Source text: In the search for new drugs compounds are of interest which affect the central nervous system circuits involved in micturation as well as the peripheral nerves resulting in a decrease in the frequency of the voiding reflex without any effect on bladder contractility. […] The method utilises spontaneous, volume-induced contractions of the urinary bladder in anaesthetised rats and was developed and first described by Dray (J. Pharmacol. Meth. 13:157-165, 1985) to assess the central activity of substances with opioid properties on bladder function. As this model clearly mimics the interplay between smooth muscle function and neuronal control thereof, this model can be also used to predict drug effects in a different disease, i.e. irritable bowl syndrome (IBS).
Aim of the study: To characterise the effects of the analgesic flupirtine maleate on the bladder function we used the model volume-induced contractions of urinary bladder in urethane anaesthetised rats. […] The compounds at the dose range 0.1-10 mg/kg were intraduodenally administered to anaesthetised rats. The intraduodenal route was chosen to mimic the oral route and to avoid the use of solvents necessary for intravenous administration.
• Species: Sprague Dawley rat • Sex: Female • Body weight: 200-270 g • Breeder: Charles River, Sulzfeld • Food/Tap water: pellets, ssniff M/R15, ad libitum, Spezialdiäten GmbH, Soest/Wesffalen, FRG • Conditions in animal housing: Rats were kept conventionally in groups of 6 in macrolon cages No. 4. • Room temperature: 20-24° C. • Relative humidity: 40-70%, deviations from the maximum range caused during cleaning procedure are possible • Light/Dark rhythm: 12/12 h light/dark cycle, light on at 6:00 a.m.
The food was withdrawn 16 hours before intraduodenal drug administration. Tap water was available ad libitum.
Flupirtine maleate or oxybutynin hydrochloride were suspended in hydroxyethylcellulose (0.5%) in demineralised water. The substances were ground in a mortar with pistil. The suspensions were placed on a magnetic stirrer before and during dosing procedures. The substances were freshly prepared in the morning and applied intraduodenally in a volume of 0.4 ml/100 g body weight. Control rats received hydroxyethylcellulose (0.5%) i.d.
The filling material, consisting of small globules, was ground in a mortar with pistil. Thereafter the grounded material was suspended in hydroxyethylcellulose (0.5%) in demineralised water. The suspensions were placed on a magnetic stirrer before and during dosing procedures for 10 minutes. The suspensions were freshly prepared in the morning and applied intraduodenally in a volume of 0.4 ml/100 g body weight to rats. Control rats received the same amount of hydroxyethylcellulose (0.5%) i.d.
The continuous registration lasted 1 hr. […] The frequency was evaluated for 10 min before (baseline) and within the observation period in intervals of 10 minutes starting 5, 20, 35 and 50 min after drug administration. For intraduodenal dosing, drugs were administered via a duodenal polyethylene tube to animals in aqueous suspension of 0.5% hydroxyethylcellulose.

[2] = test system: mean arterial blood pressure; experiment: mean arterial blood pressure recorded in the urethane anaesthetised rats of the bladder model
Description: The body temperature was maintained at 37° C. by means of an heated small operating table and 2 red light heating lamps. The left carotid artery was prepared and a catheter for continuous blood pressure measurement was inserted and connected to a Statham pressure transducer (Model P23 Db) and connected with a computer-controlled physiological recorder (PMS PR 800, Mumed Systems Ltd London, GB).
For intraduodenal drug administration a polyethylene catheter was inserted into the upper part of the duodenum, about 5 cm downwards from the pylorus and fixed with a purse-string suture. Bilateral ureters were ligated proximally to the bladder to prevent the bladder filling with urine. Urine of the kidneys was drained onto cotton swabs within the abdomen. The urinary bladder was catheterised via the urethra by use of PE 50 polyethylene tubing filled with physiological saline and secured in place by a ligature at the lower part of the urethra. Using a “T”-connector, the bladder catheter was connected to a Statham pressure transducer (Model P23 Db) connected with the physiological recorder (PMS PR 800) to measure intravesicular pressure and to a Infusion pump (TSE, FRG). Continuous recordings of intravesicular pressure and arterial blood pressure were captured onto a 4 channel Linearcorder WR3310 (Western Graphtec, Inc., USA). The experiment was started infusing (0.05 ml/min) the bladder with warmed saline (37-38° C.) to evoke rhythmic bladder contractions by means an infusion pump up to a maximal volume of 1.0 ml. The infusion is stopped after reaching the final volume or with the start of rhythmic bladder contractions.

[3] = 0.1 mg/kg i.d. single dose, group mean
[4] = 1.0 mg/kg i.d. single dose, group mean
[5] = 10 mg/kg i.d. single dose, group mean

In the case of CCN(CC)CC#CCOC(=O)C(O)(c1ccccc1)C1CCCCC1 (stereo not drawn) [oxybutynin hydrochloride, (α-Phenylcyclohexaneglycolicacid 4-[diethylamino]-2-butynyl ester hydrochloride], the “block X/n (animals with blockade of bladder contraction)” value (“block X/n” below) ([1]; 0.1 mg/kg i.d. single dose) is reported as 3/3, the “block, blockade duration (group, min-max)” value (shortened to “block, blockade duration”) ([1]; 0.1 mg/kg i.d. single dose) is reported as 4 to 6 min and the “amplitude Post (30-60 min), mean” value [1, 3] is reported as 32.0-32.0 mm Hg. For the same compound, the “amplitude, change in percent from base value (Δ %)” value [1, 3] was −13%, the “frequency Post (20-60 min), mean” value [1, 3] was 6.3-7.3 n/10 min and the “frequency, change in percent from base value (Δ %)” value [1, 3] was −12%. The “presence/absence of bladder contractions (block grade), individual animal” value (“presence/absence of bladder contractions” below) ([1]; 0.1 mg/kg i.d.) was “(+) (+ or (+) = contractions abolished during 5-10 min time period)”, the “decrease in frequency, individual animal” value ([1]; 0.1 mg/kg i.d., hydrochloride) was “decrease in frequency by 25%,; also recorded: frequency by 50%” and the “duration of block, individual animal” value ([1]; 0.1 mg/kg i.d., hydrochloride) was ≤ 6 min and 5 min and max. 4 min, initial increase,. The “increase in frequency, individual animal” value ([1]; 0.1 mg/kg i.d., hydrochloride) was “frequency by 17%; also recorded: by 9% during 5-15th min”, the “number of episodes of block per animal” value ([1]; 0.1 mg/kg i.d., hydrochloride) was 4 (2×) and 1 and the “number of episodes of block per animal” value ([1]; 0.1 mg/kg i.d., listed as Oxybutynin hydrochloride, hydrochloride) was 1-4. The “mean pressure peaks of the amplitude diminished/reduced by” value ([1]; 0.1 mg/kg i.d.) was 13%, the “block X/n” value ([1]; 1.0 mg/kg i.d. single dose) was 3/3 and the “amplitude, change in percent from base value (Δ %)” value [1, 4] was −20%. The “frequency, change in percent from base value (Δ %)” value [1, 4] was −68%, the “amplitude Post (30-60 min), mean” value ([1]; 1.0 mg/kg i.d. single dose, group mean, hydrochloride) was 3/3 bl and the “presence/absence of bladder contractions” value ([1]; 1.0 mg/kg i.d., hydrochloride) was “+++ from 3 to 11th and 30 to (+++ = contractions abolished during 30-60 min time period); also recorded: ++ (++ = contractions abolished during 10-30 min time period)”. The “mean voiding frequency decreased by” value ([1]; 1 mg/kg i.d., decrease) was 68%, the “decrease in frequency, individual animal” value ([1]; 1.0 mg/kg i.d., hydrochloride) was “contractions by 100%; also recorded: frequency by 62%; also recorded: by 80%” and the “duration of block, individual animal” value ([1]; 1.0 mg/kg i.d., hydrochloride) was 9 min and 30 min and 7 to 16 min and 4 to 11 min. The “number of episodes of block per animal” value ([1]; 1.0 mg/kg i.d., hydrochloride) was 3-6 and 3 and 5, the “mean pressure peaks of the amplitude diminished/reduced by” value ([1]; 1 mg/kg i.d.) was 20% and the “block X/n” value ([1]; 10 mg/kg i.d. single dose) was 3/3. For the same compound, the “amplitude, change in percent from base value (Δ %)” value [1, 5] was −38%, the “frequency, change in percent from base value (Δ %)” value [1, 5] was “+22%” and the “block, blockade duration” value ([1]; 10 mg/kg i.d. single dose, hydrochloride) was 5 to 30 min. For the same compound, the “block, blockade duration” value ([1]; 10 mg/kg i.d. single dose, listed as Oxybutynin hydrochloride, hydrochloride) was 4 to 30 min, the “presence/absence of bladder contractions” value ([1]; 10 mg/kg i.d., hydrochloride) was “+ (+ or (+) = contractions abolished during 5-10 min time period); also recorded: ++ (++ = contractions abolished during 10-30 min time period)” and the “mean frequency averaged over all animals increased by” value ([1]; 10 mg/kg i.d., increase) was 22%. For the same compound, the “duration of block, individual animal” value ([1]; 10 mg/kg i.d., hydrochloride) was 4 min (2×) and 30 min, the “increase in frequency, individual animal” value ([1]; 10 mg/kg i.d., hydrochloride) was “increase in frequency by 14%; also recorded: in frequency by 28%; also recorded: increase in frequency by 22%” and the “number of episodes of block per animal” value ([1]; 10 mg/kg i.d., hydrochloride) was 2 and 1 (2×). The “mean pressure peaks of the amplitude diminished/reduced by” value ([1]; 10 mg/kg i.d.) was 38%, the “reduction in the amplitude, of the basal value” ([1]; dose range 0.1-10 mg/kg i.d., generally) was “no more than 60%” and the “mean BP, change in percent from base value (Δ %)” value [2, 3] was −5%. For the same compound, the “mean BP Post (30-60 min), mean” value [2, 4] was 80.0-85.0 mm Hg, the “mean BP, change in percent from base value (Δ %)” value [2, 4] was −15% and the “mean BP, change in percent from base value (Δ %)” value [2, 5] was −24%. For the same compound, the “mean arterial blood pressure decreased by” value ([2]; 10 mg/kg i.d., decrease) was 24%.
